Assay results reported in patent US20020082273A1, “Agents for use in the treatment of alzheimer's disease” (priority 1998, published 2002).
Structures can show the parent of a compound that is named as a salt.

Experiments:
Assay type in all cases: biochemical
Aβ1-42 = Aβ1-42 (Homo sapiens, UniProt P05067); test: Effect of metal chelators on H2O2 production from Aβ1-42; conditions: 1 μM Cu^2+; chelator 200 μM
[1] = target: T1, Aβ1-40 or Aβ1-42 SDS-resistant polymers (Homo sapiens, UniProt P05067); test: Dissolution of in vitro Cu^2+-induced SDS-resistant Aβ polymers
T1 construct: purchased W. Keck Laboratory, Yale; host or cells: chemical synthesis
T1 sequence (P05067 672-713, change not shown): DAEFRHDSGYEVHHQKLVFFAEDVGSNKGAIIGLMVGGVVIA

[2] = Metal reduction assay, Fe^3+ to Fe^2+; conditions: 10 μM Fe^3+, PBS pH 7.4, 1 hr 37° C.
Method: (§1) The metal reduction assay was performed using a 96-well microtiter plate (Costar) based upon a modification of established protocols (Landers, J. W., et al., Amer. Clin. Path. 29:590 (1958); Landers, J. W., et al., Clinica Chimica Acta 3:329 (1958)). Polypeptides (10 μM) or Vitamin C (100 μM), metal ions (10 μM, Fe(NO3)3 or Cu(NO3)2), and reduced metal ion indicators, bathophenanthrolinedisulfonic acid (BP, for Fe^2+, Sigma, 200 μM) or bathocuproinedisulfonic acid (BC, for Cu^+, Sigma, 200 μM), were coincubated in phosphate buffered saline (PBS), pH 7.4, for 1 hr at 37° C. The metal ion solutions were prepared by direct dilution in the buffer from their aqueous stocks purchased from National Institute of Standards and Technology (NIST). Absorbances were then measured at 536 mn (Fe^2+-BP complex) and 483 nm (Cu^+-BC complex), respectively, using a 96-well plate reader (SPECTRAmax 250, Molecular Devices, CA). In control samples, both metal ion and indicator were present to determine the background buffer signal. As a further control, both metal ion and peptide were present in the absence of indicator to estimate the contribution of light scattering due to turbidity to the absorbance reading at these wavelengths. The net absorbances (ΔA) at 536 nm or 483 nm were obtained by deducting the absorbances from these controls from the absorbances generated by the peptide and metal in the presence of the respective indicator.
The concentrations of reduced metal ions (Fe^2+ or Cu^+) were quantified based on the formula: Fe^2+ or Cu^+ (˜M)=A*10^6/(L*M), where L is the measured equivalent vertical pathlength for a well of 300 μL volume as described in the instrument's specifications manual (0.856 cm for Fe^2+; 1.049 cm for Cu^+); M is the known molecular absorbance (M^−1 cm^−1) which is 7124 (for Fe^2+-BP complex) or 2762 (for Cu^+-BC complex).

[3] = Metal reduction assay, Cu^2+ to Cu^+
Method: Aβ (10 μM in PBS, pH 7.4 or 6.8, as shown) was incubated for 30 minutes (37° C.) in the presence of Cu^2+10 μM ±Zn^2+ 10 μM). […] levels (n=3, ±SD) were assayed against a standard curve.
as §1, with “Polypeptides” for “The metal reduction assay was performed using a 96-well microtiter plate (Costar) based upon a modification of established protocols (Landers, J. W., et al., Amer. Clin. Path. 29:590 (1958); Landers, J. W., et al., Clinica Chimica Acta 3:329 (1958)). Polypeptides”, “Absorbances were then measured at 536 mn (Fe^2+-BP complex) and 483 nm (Cu^+-BC complex), respectively, using a 96-well plate reader (SPECTRAmax 250, Molecular Devices, CA).” left out

Chain of Aβ1-42 (P05067 672-713 limits assumed): as the sequence (P05067 672-713, change not shown) above

Row | disruption of SDS-resistant polymers ([1]; 4.5 M) | disruption of SDS-resistant polymers ([1]; 9M) | Compound | further results
1 |  |  | O=S(=O)(O)c1ccc(-c2ccnc3c2ccc2c(-c4ccc(S(=O)(=O)O)cc4)ccnc23)cc1 [BP, bathophenanthrolinedisulfonic acid] | effect on H2O2 formation by Aβ1-42 (Aβ1-42): inhibited H2O2 formation
2 | did not disrupt | only slightly | NC(N)=O [Urea, urea] | 
3 | did not disrupt | only slightly | N=C(N)N [guanidine HCl] | 
4 |  |  | insulin: histidine-containing peptide that can bind copper and zinc | reduction of available Fe^3+ [2]: did not significantly facilitate the reduction of Fe^3+; reduction of available Cu^2+ ([3]; 10 μM Cu^2+, PBS pH 7.4, 1 hr 37° C.): 10%; Cu^2+ reduction ([3]; 10 μM, PBS, 30 minutes 37° C., Cu^2+ 10 μM): no Cu^2+ reduction
